Weight loss data for one compound are collected here from US6416775B1, “Dry spreadable carrier for pesticides” (priority 1996, dated 2002).

The nature of the data set: Volatile materials in ventilating oven. The format is physicochemical. The conditions noted are these: after 2 hours at 141° F. (=60.5° C.) in a ventilating oven. Here is the method: The moisture content of raw material Celite 500 is 3.7 weight percent. So, the weight of raw material Celite 500 is close to the dry weight of Celite 500. According to the product specifications of Supragil MNS/90, Soprophor S/40-P, and Supragil WP, the moisture contents of these components are no higher than 2 weight percent. Also, samples of chlorpyrifos technical were tested for volatile materials in a ventilating oven. The weight loss after 2 hours at 141° F. (=60.5° C.) was only 0.6 weight percent. […] Therefore, the dry spreadable granular product as manufactured above contains approximately 2.0 weight percent chlorpyrifos.

Turning to `CCOP(=S)(OCC)Oc1nc(Cl)c(Cl)cc1Cl` [Chlorpyrifos], the weight loss is 0.6 weight percent.
